The values below come from patent publication US8354403B2, “Pyrrolidine derived beta 3 adrenergic receptor agonists” (Merck Sharp & Dohme Corp., priority 2009, dated 2013).

Where a name gives a salt, the structure may show the parent alone.

The target of the first experiment is T1, human β3 adrenergic receptor (Homo sapiens, UniProt P13945).
T1 construct: expressed in transfected cells; host or cells: Chinese hamster ovary (CHO) cells, stably transfected
T1 sequence (P13945 whole entry): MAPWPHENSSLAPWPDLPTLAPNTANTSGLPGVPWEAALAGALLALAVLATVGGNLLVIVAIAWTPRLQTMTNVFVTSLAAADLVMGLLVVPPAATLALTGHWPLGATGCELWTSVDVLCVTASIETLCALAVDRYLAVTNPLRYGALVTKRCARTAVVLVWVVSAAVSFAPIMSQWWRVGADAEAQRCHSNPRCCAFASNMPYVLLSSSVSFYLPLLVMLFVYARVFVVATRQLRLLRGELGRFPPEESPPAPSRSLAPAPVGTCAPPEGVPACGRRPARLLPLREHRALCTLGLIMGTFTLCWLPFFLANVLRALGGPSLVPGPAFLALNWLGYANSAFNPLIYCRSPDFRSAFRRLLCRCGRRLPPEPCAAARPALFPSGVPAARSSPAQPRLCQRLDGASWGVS
In words: Beta-3 agonist in vitro functional assay: cAMP production (LANCE TR-FRET) in CHO cells stably transfected with the cloned β3 receptor. The format is cell-based. Particulars: Table 4; cAMP, CHO cells; read-out: Human β3 agonist functional activity. The essentials:
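CHO cells stably expressing the cloned receptor, in HEPES-buffered HBSS with BSA and 0.6 mM IBMX, 6,000 cells/well, exposed to compound for 30 min at RT. cAMP read by LANCE TR-FRET against a cAMP standard curve. Isoproterenol defines maximal stimulation.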
For the compound `O=C(c1ccc(C[C@@H]2CC[C@H]([C@H](O)c3ccccc3)N2)cc1)N1CC2CC(n3cncn3)CC2C1` (stereo partly shown) [Example 22], the EC50 lay in the range of 100 to 999 nM.
Turning to `O=C(c1ccc(C[C@@H]2CC[C@H]([C@H](O)c3ccccc3)N2)cc1)N1CCCC(c2nc3ccccc3o2)C1` (stereo partly shown) [Example 33], the EC50 lay in the range of 100 to 999 nM.
Regarding `O=C(c1ccc(C[C@@H]2CC[C@H]([C@H](O)c3ccccc3)N2)cc1)N1CC2CC(n3ccnn3)CC2C1` (stereo partly shown) [Example 21], the EC50 is 10 to 99.9 nM.
In the case of `Cc1nc2c(s1)CCN(C(=O)c1ccc(C[C@@H]3CC[C@H]([C@H](O)c4ccccc4)N3)cc1)C2` [Example 52], the EC50 is 100 to 999 nM.
On to `CC1(C)CC2(CCCN(C(=O)c3ccc(C[C@@H]4CC[C@H]([C@H](O)c5ccccc5)N4)cc3)C2)C(=O)O1` (stereo partly shown) [Example 41], for which the EC50 was in the range of 10 to 99.9 nM.

The experiment is the same for the next values; noted with them: Table 5; cAMP, CHO cells; read-out: Human β3 agonist functional activity.
As for `COc1ccc(CC2CCN(C(=O)c3ccc(C[C@@H]4CC[C@H]([C@H](O)c5ccccc5)N4)cc3)CC2)cc1F` [Example 147], the EC50 was 10 to 99.9 nM.
As to `COC(=O)c1cc(OC2CCN(C(=O)c3ccc(C[C@@H]4CC[C@H]([C@H](O)c5ccccc5)N4)cc3)CC2)no1` [Example 159], the EC50 fell in the range of 100 to 999 nM.
For the compound `O=C(c1ccc(C[C@@H]2CC[C@H]([C@H](O)c3ccccc3)N2)cc1)N1CCC(c2nc3ccccc3o2)CC1` [Example 78], the EC50 was in the range of 100 to 999 nM.
In the case of `O=C(c1ccc(C[C@@H]2CC[C@H]([C@H](O)c3ccccc3)N2)cc1)N1CCC(S(=O)(=O)c2ccccc2F)CC1` [Example 132], the EC50 fell in the range of 1 to 9.9 nM.
In the case of `Cc1cnnn1C1CCN(C(=O)c2ccc(C[C@@H]3CC[C@H]([C@H](O)c4ccccc4)N3)cc2)CC1` [Example 96], the EC50 lay within 100 to 999 nM.
For the compound `CC(c1ccccn1)C1CCN(C(=O)c2ccc(C[C@@H]3CC[C@H]([C@H](O)c4ccccc4)N3)cc2)CC1` (stereo partly shown) [Example 164], the EC50 fell in the range of 10 to 99.9 nM.
Regarding `O=C(c1ccc(C[C@@H]2CC[C@H]([C@H](O)c3cccnc3)N2)cc1)N1CCC(S(=O)(=O)c2cccc(F)c2)CC1` [Example 131], the EC50 is 100 to 999 nM.
Regarding `O=C(c1ccc(C[C@@H]2CC[C@H]([C@H](O)c3cccnc3)N2)cc1)N1CCC(c2cccc(F)n2)CC1` [Example 113], the EC50 was 10 to 99.9 nM.
With `O=C(c1ccc(C[C@@H]2CC[C@H]([C@H](O)c3ccccc3)N2)cc1)N1CCCCC1` [Example 67], the EC50 lay within 100 to 999 nM.
On the same count and under the same terms, under `O=C(c1ccc(C[C@@H]2CC[C@H]([C@H](O)c3ccccc3)N2)cc1)N1CCC(COc2cnccn2)CC1` [Example 161] stands 10 to 99.9 nM; under `O=C(c1ccc(C[C@@H]2CC[C@H]([C@H](O)c3ccccc3)N2)cc1)N1CCC(Cn2ncccc2=O)CC1` [Example 148], 10 to 99.9 nM.

The same experiment, now with this note: Table 7; cAMP, CHO cells; ranges as given for Tables 6 and 7; read-out: Human β3 agonist functional activity.
Turning to `N#CC1(c2cccnn2)C2CN(C(=O)c3ccc(C[C@@H]4CC[C@H]([C@H](O)c5ccccc5)N4)cc3)CC21` (stereo partly shown) [Example 236], the EC50 fell in the range of 10 to 99.9 nM.
For `CCOC(=O)C1C2CN(C(=O)c3ccc(CC4CCC(C(O)c5ccccc5)N4)cc3)CC21` (stereo not shown) [Example 230], the EC50 lay within 10 to 99.9 nM.

Still in this experiment, the particulars now being: Table 8; Beta-3 agonist in vitro functional assay; read-out: Human β3 agonist functional activity.
Regarding `O=C1CCC2(CCN(C(=O)c3ccc(C[C@@H]4CC[C@H]([C@H](O)c5ccccc5)N4)cc3)CC2)O1` [Example 273], the EC50 was 10 to 99.9 nM.
Consider `O=C(c1ccc(C[C@@H]2CC[C@H]([C@H](O)c3ccccc3)N2)cc1)N1CCC2(CC1)C(=O)NCC2c1cccc(C(F)(F)F)c1` (stereo partly shown) [Example 264], for which the EC50 is under 1 nM.
Take `CON=C1CCCC12CCN(C(=O)c1ccc(CC3CCC(C(O)c4ccccc4)N3)cc1)CC2` (stereo not shown) [Example 318]: the EC50 is 100 to 999 nM.
In the case of `O=C(c1ccc(C[C@@H]2CC[C@H]([C@H](O)c3cccnc3)N2)cc1)N1CCC2(CC1)NC(=O)N(Cc1ccccc1)C2=O` [Example 270], the EC50 lay in the range of 10 to 99.9 nM.
Turning to `Cc1nnc(C2(C3CCCCC3)CCN(C(=O)c3ccc(C[C@@H]4CC[C@H]([C@H](O)c5ccccc5)N4)cc3)CC2)o1` [Example 249], the EC50 fell in the range of 100 to 999 nM.
Same read-out and setting: the value for `NC1CCCC12CCN(C(=O)c1ccc(C[C@@H]3CC[C@H]([C@H](O)c4ccccc4)N3)cc1)CC2` (stereo partly shown) [Example 315] was 100 to 999 nM.

The same experiment, now with this note: Table 9; Beta-3 agonist in vitro functional assay; read-out: Human β3 agonist functional activity.
For the compound `O=C(c1ccc(C[C@@H]2CC[C@H]([C@H](O)c3ccccc3)N2)cc1)N1CCN(c2ncccc2Cl)CC1` [Example 358], the EC50 lay in the range of 10 to 99.9 nM.
On the same count and under the same terms, under `O=C(c1ccc(C[C@@H]2CC[C@H]([C@H](O)c3ccccc3)N2)cc1)N1CCN(c2nccc3ccccc23)CC1` [Example 373] stands 10 to 99.9 nM; under `CN(C)C(=O)CN1CCN(C(=O)c2ccc(C[C@@H]3CC[C@H]([C@H](O)c4ccccc4)N3)cc2)CC1` [Example 389], 100 to 999 nM.
The same measure, in the same setting: under `COC(=O)c1ccccc1N1CCN(C(=O)c2ccc(C[C@@H]3CC[C@H]([C@H](O)c4ccccc4)N3)cc2)CC1` [Example 351] stands 10 to 99.9 nM.
The same measure, in the same setting: the value for `CS(=O)(=O)N1CCN(C(=O)c2ccc(C[C@@H]3CC[C@H]([C@H](O)c4ccccc4)N3)cc2)CC1` [Example 345] was 100 to 999 nM.
As for `NC(=O)CN1CCN(C(=O)c2ccc(C[C@@H]3CC[C@H]([C@H](O)c4ccccc4)N3)cc2)CC1` [Example 388], the EC50 fell in the range of 100 to 999 nM.
As for `O=C(c1ccc(C[C@@H]2CC[C@H]([C@H](O)c3ccccc3)N2)cc1)N1CCN(S(=O)(=O)c2ccccc2)CC1` [Example 346], the EC50 lay in the range of 10 to 99.9 nM.
On the same count and under the same terms, the value for `COc1cccnc1CN1CCN(C(=O)c2ccc(C[C@@H]3CC[C@H]([C@H](O)c4ccccc4)N3)cc2)CC1` [Example 414] was 10 to 99.9 nM; that for `O=C(c1ccc(C[C@@H]2CC[C@H]([C@H](O)c3ccccc3)N2)cc1)N1CCN(C2(c3ccccn3)CC2)CC1` [Example 420] was 100 to 999 nM; that for `O=C(c1ccc(C[C@@H]2CC[C@H]([C@H](O)c3ccccc3)N2)cc1)N1CCN(Cc2cnn(-c3ccccc3)n2)CC1` [Example 408] was 1 to 9.9 nM.

Still in this experiment, the particulars now being: Table 10; Beta-3 agonist in vitro functional assay; read-out: Human β3 agonist functional activity.
For `Cc1nc2c(o1)CN(C(=O)C(C)N1CCN(C(=O)c3ccc(C[C@@H]4CC[C@H]([C@H](O)c5ccccc5)N4)cc3)CC1)CC2` (stereo partly shown) [Example 504], the EC50 is 1 to 9.9 nM.
In the case of `CC(C)CCNC(=O)C(C)N1CCN(C(=O)c2ccc(C[C@@H]3CC[C@H]([C@H](O)c4ccccc4)N3)cc2)CC1` (stereo partly shown) [Example 438], the EC50 lay in the range of 100 to 999 nM.
In the case of `CC(C(=O)NCc1cnoc1)N1CCN(C(=O)c2ccc(C[C@@H]3CC[C@H]([C@H](O)c4ccccc4)N3)cc2)CC1` (stereo partly shown) [Example 461], the EC50 fell in the range of 10 to 99.9 nM.
With `CCc1noc(CNC(=O)C(C)N2CCN(C(=O)c3ccc(C[C@@H]4CC[C@H]([C@H](O)c5ccccc5)N4)cc3)CC2)n1` (stereo partly shown) [Example 465], the EC50 was in the range of 10 to 99.9 nM.
On to `CC(C(=O)N1CC(O)(c2ccccc2)C1)N1CCN(C(=O)c2ccc(C[C@@H]3CC[C@H]([C@H](O)c4ccccc4)N3)cc2)CC1` (stereo partly shown) [Example 474], for which the EC50 is 1 to 9.9 nM.
In the case of `CC(C(=O)N1Cc2cccnc2C1)N1CCN(C(=O)c2ccc(C[C@@H]3CC[C@H]([C@H](O)c4ccccc4)N3)cc2)CC1` (stereo partly shown) [Example 482], the EC50 was 10 to 99.9 nM.

The same experiment, now with this note: Table 11; cAMP, CHO cells; read-out: Human β3 agonist functional activity.
Regarding `CC(c1ccccn1)N1C2CCC1CN(C(=O)c1ccc(CC3CCC(C(O)c4ccccc4)N3)cc1)C2` (stereo not shown) [Example 539], the EC50 fell in the range of 10 to 99.9 nM.
As to `O=C(c1ccc(C[C@@H]2CC[C@H]([C@H](O)c3ccccc3)N2)cc1)N1CC2CC1CN2Cc1ccccn1` (stereo partly shown) [Example 534], the EC50 is 100 to 999 nM.
For the compound `O=C(c1ccc(C[C@@H]2CC[C@H]([C@H](O)c3ccccc3)N2)cc1)N1CCCN(c2nccn3ccnc23)CC1` [Example 552], the EC50 fell in the range of 1 to 9.9 nM.
`O=C(c1ccc(C[C@@H]2CC[C@H]([C@H](O)c3ccccc3)N2)cc1)N1CCN(c2ccccn2)C(=O)C1` [Example 546]: the EC50 lay within 100 to 999 nM.

The same experiment, now with this note: Table 12; human β3 functional activity given as ranges; read-out: Human β3 agonist functional activity.
Turning to `CC(C)(C)C1CC2(CCN(C(=O)c3ccc(CC4CCC(C(O)c5ccccc5)N4)cc3)CC2)C(=O)O1` (single isomer, unassigned) [Example 570], the EC50 fell in the range of 1 to 9.9 nM.
`CC(c1ncc2ccccc2n1)N1CCN(C(=O)c2ccc(C[C@@H]3CC[C@H]([C@H](O)c4ccccc4)N3)cc2)CC1` (mixture of isomers) [Example 572]: the EC50 was 1 to 9.9 nM.
Turning to `O=C(c1ccc(CC2CCC(C(O)c3ccccc3)N2)cc1)N1CCN(C2CCc3cccnc32)CC1` (single isomer, unassigned) [Example 597], the EC50 was in the range of 1 to 9.9 nM.
Still for that read-out and setting: under `CC(c1cscn1)N1CCN(C(=O)c2ccc(C[C@@H]3CC[C@H]([C@H](O)c4ccccc4)N3)cc2)CC1` (single isomer, unassigned) [Example 580] stands 10 to 99.9 nM.
As to `O=C(c1ccc(CC2CCC(C(O)c3cccnc3)N2)cc1)N1CCC2(CC1)C(=O)NCC2c1ccc(F)cc1` (single isomer, unassigned) [Example 556], the EC50 lay in the range of 1 to 9.9 nM.

The same experiment, now with this note: given as a range; cAMP, CHO cells; read-out: human β3 functional activity.
`O=C(c1ccc(C[C@@H]2CC[C@H]([C@H](O)c3ccccc3)N2)cc1)N1C2CCC1C1CCC2N1Cc1ccccn1` [Example 524, (R)-phenyl[(2R,5S)-5-(4-{[10-(pyridin-2-ylmethyl)-9,10-diazatricyclo[4.2.1.1^2,5]dec-9-yl]carbonyl}benzyl)pyrrolidin-2-yl]methanol]: the EC50 is 10 to 99.9 nM.
Same read-out and setting: the value for `CC(C(=O)N1CCC(F)(F)C1)N1CCN(C(=O)c2ccc(C[C@@H]3CC[C@H]([C@H](O)c4ccccc4)N3)cc2)CC1` (stereo partly drawn) [Example 432, (R)-{(2R,5S)-5-[4-({4-{2-(3,3,-Difluoropyrrolidin-1-yl)-1-methyl-2-oxoethyl]piperazine-1-yl}carbonyl)benzyl}pyrrolidin-2-yl)(phenyl)methanol, TFA salt] was 10 to 99.9 nM.

Still in this experiment, the particulars now being: human β3 functional activity.
`C[C@H](c1ccccn1)N1C2CCC1C1CCC2N1C(=O)c1ccc(C[C@@H]2CC[C@H]([C@H](O)c3ccccc3)N2)cc1` [Example 525] had an EC50 of 10 to 99.9 nM.
